Among the test systems are HCT-116; OVCAR-4; HL-60; NCI-H522; COLO 205; U-251; EKVX; TK-10; Malme-3M; KM12; SK-MEL-2; SK-MEL-5; OVCAR-5; NCI-H226; RPMI-8226; M14; ACHN.
What all share (test): growth of human tumour cells (NCI), 48 h

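In this assay, cells in 96-well plates receive the compound at five concentrations for 48 hours. Endpoints are linearly interpolated between the surrounding concentrations. GI50 = concentration required for 50% inhibition of growth.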 Calls of active or inactive are those of the source. Cut-off read from the data, not from the text of the source: active = GI50 up to about 1.1 µM and inactive = higher.

Regarding `O=S(=O)(Sc1ccc(Cl)cc1)c1ccc(Cl)cc1`, the GI50 with HCT-116 was 14.9 µM (inactive); with OVCAR-4, 20.6 µM (inactive); with HL-60, 13.6 µM (inactive); in the assay with NCI-H522 it was 17.1 µM (inactive); with COLO 205, 17.7 µM (inactive); with U-251 it was 10.3 µM (inactive). For the same molecule, the GI50 in the assay on EKVX is 15.6 µM (inactive); in the assay with TK-10, 21.4 µM (inactive); in the assay with Malme-3M, 17.5 µM (inactive); in the assay on KM12 it was 14.7 µM (inactive); with SK-MEL-2, 3.84 µM (inactive); in the assay on SK-MEL-5, 15.2 µM (inactive). For the same molecule, the GI50 is 19.9 µM (inactive) with OVCAR-5; 16.7 µM (inactive) with NCI-H226; 22.6 µM (inactive) with RPMI-8226; 17.5 µM (inactive) in the assay on M14; 16.1 µM (inactive) in the assay with ACHN.

Take `BrC1=CC=C2NCCCCCC/N=C3\C=CC(Br)=CC=C3NCCCCCC/N=C\2C=C1`: the GI50 with HCT-116, in the assay on OVCAR-4, with HL-60, with NCI-H522, with U-251 and with EKVX was > 25.5 µM (inactive) in each case. The GI50 in the assay on TK-10, with Malme-3M, in the assay with KM12, with SK-MEL-2, in the assay with SK-MEL-5 and with OVCAR-5 was > 25.5 µM (inactive) throughout. Moreover, the GI50 in the assay with NCI-H226, with RPMI-8226, with M14 and with ACHN was > 25.5 µM (inactive) in each case.

`Cc1c(NC(=S)NC(=O)c2ccc([N+](=O)[O-])cc2)c(=O)n(-c2ccccc2)n1C`: the GI50 in the assay on HCT-116, with OVCAR-4, in the assay with HL-60, with NCI-H522, in the assay with COLO 205 and in the assay with U-251 was > 100 µM (inactive) in each case. Besides, the GI50 in the assay with EKVX, in the assay with TK-10, in the assay with Malme-3M, in the assay on KM12, in the assay on SK-MEL-2 and in the assay on SK-MEL-5 was > 100 µM (inactive) in each case. In addition, the GI50 in the assay on OVCAR-5, in the assay on NCI-H226, with RPMI-8226, in the assay with M14 and in the assay on ACHN was > 100 µM (inactive) throughout.

Take `CCOc1ccc(/N=C/c2ccc3ccccc3n2)cc1`: the GI50 is > 100 µM (inactive) with HCT-116; > 100 µM (inactive) in the assay with OVCAR-4; > 47.1 µM (inactive) in the assay with HL-60; > 100 µM (inactive) in the assay on NCI-H522; > 100 µM (inactive) with COLO 205; > 100 µM (inactive) with U-251. Besides, the GI50 with EKVX, in the assay on TK-10, in the assay on Malme-3M, in the assay on KM12, in the assay with SK-MEL-2 and in the assay on SK-MEL-5 was > 100 µM (inactive) throughout. Moreover, the GI50 was > 100 µM (inactive) with OVCAR-5; > 100 µM (inactive) with NCI-H226; > 87.1 µM (inactive) with RPMI-8226; > 100 µM (inactive) with M14; > 100 µM (inactive) in the assay with ACHN.

With `COc1ccccc1-n1c(NN)nc2ccc(Br)cc2c1=O`, the GI50 with OVCAR-4 was > 100 µM (inactive); in the assay on HL-60, 21.3 µM (inactive); in the assay with NCI-H522 it was 16.9 µM (inactive); in the assay with COLO 205 it was 45.9 µM (inactive); in the assay on U-251, 35.4 µM (inactive); with EKVX it was 27.9 µM (inactive). Also, the GI50 in the assay with TK-10 is 28.4 µM (inactive); in the assay with Malme-3M it was 39.4 µM (inactive); with KM12, 38.6 µM (inactive); with SK-MEL-2, 44.4 µM (inactive); in the assay on SK-MEL-5 it was 19.3 µM (inactive); with OVCAR-5 it was 18.2 µM (inactive). The GI50 in the assay on NCI-H226 is 31 µM (inactive); in the assay with RPMI-8226, 41.2 µM (inactive); with M14, 40.6 µM (inactive); in the assay on ACHN, 36.5 µM (inactive).

Turning to `N#CC1=C(Cl)NC(Cl)=C(C#N)C1c1c(Cl)cccc1Cl`, the GI50 in the assay with HCT-116 is 18.7 µM (inactive); in the assay on HL-60, 19.6 µM (inactive); in the assay with NCI-H522, 17.2 µM (inactive); in the assay with COLO 205 it was 17.5 µM (inactive); in the assay on U-251, 16.3 µM (inactive); in the assay on EKVX, 49.8 µM (inactive). The GI50 in the assay with TK-10 was 36.5 µM (inactive); in the assay with Malme-3M, 46 µM (inactive); with KM12, 21.8 µM (inactive); with SK-MEL-2 it was 58.3 µM (inactive); in the assay with SK-MEL-5 it was 21.5 µM (inactive); in the assay on OVCAR-5 it was > 100 µM (inactive). Also, the GI50 is > 100 µM (inactive) with NCI-H226, 22.5 µM (inactive) in the assay on RPMI-8226, 38.8 µM (inactive) in the assay on M14 and 39.1 µM (inactive) in the assay with ACHN.

For `O=C1c2ccccc2C(=O)N1CCN(CCN1C(=O)c2ccccc2C1=O)Cc1ccccc1`, the GI50 in the assay on HCT-116, in the assay on OVCAR-4, in the assay with HL-60, in the assay with NCI-H522, in the assay with COLO 205 and in the assay with U-251 was > 100 µM (inactive) in each case. Also, the GI50 in the assay with EKVX, in the assay on TK-10, with KM12, in the assay on SK-MEL-2, in the assay with SK-MEL-5 and in the assay with RPMI-8226 was > 100 µM (inactive) throughout. Further, the GI50 with M14 and in the assay with ACHN was > 100 µM (inactive) each time.

As for `C[C@]12CCc3nonc3C1CC[C@@H]1C2CC[C@]2(C)C(=O)/C(=N\O)CC12` (stereo partly specified), the GI50 was > 100 µM (inactive) in the assay on HCT-116; 48.2 µM (inactive) in the assay on OVCAR-4; 1.03 µM (active) in the assay on HL-60; 4.66 µM (inactive) in the assay with NCI-H522; 54.3 µM (inactive) in the assay on COLO 205; > 100 µM (inactive) in the assay on U-251. In addition, the GI50 in the assay with EKVX, in the assay on TK-10, in the assay with Malme-3M, in the assay with KM12, in the assay on SK-MEL-2 and in the assay with SK-MEL-5 was > 100 µM (inactive) throughout. In addition, the GI50 in the assay with OVCAR-5, with NCI-H226, in the assay with RPMI-8226, in the assay with M14 and in the assay with ACHN was > 100 µM (inactive) each time.

Turning to `CC1(C)CC23C(=O)N(c4ccccc4)C(Nc4ccccc4)=NC2=CC(C#N)=C(C#N)C3O1` (stereo unspecified), the GI50 was 89.5 µM (inactive) with HCT-116; 22.6 µM (inactive) in the assay with OVCAR-4; 27.4 µM (inactive) in the assay on HL-60; 20.1 µM (inactive) in the assay on NCI-H522; 39.9 µM (inactive) with COLO 205; > 100 µM (inactive) with U-251. For the same molecule, the GI50 is > 100 µM (inactive) in the assay on EKVX; > 100 µM (inactive) in the assay with TK-10; 46.3 µM (inactive) in the assay with Malme-3M; 46.6 µM (inactive) in the assay on KM12; 61.5 µM (inactive) with SK-MEL-2; 28.1 µM (inactive) with SK-MEL-5. Further, the GI50 with OVCAR-5 was > 100 µM (inactive); in the assay on NCI-H226, 26.4 µM (inactive); in the assay with RPMI-8226, 30.4 µM (inactive); in the assay on M14 it was > 100 µM (inactive); with ACHN, 28.8 µM (inactive).

As to `CCCCOC(=O)C1C2CCC(O2)C1C(=O)OCCCC` (stereo unspecified), the GI50 with HCT-116 was > 45.6 µM (inactive); in the assay with OVCAR-4, > 87.1 µM (inactive); with HL-60, > 100 µM (inactive); in the assay with NCI-H522 it was > 100 µM (inactive); with COLO 205, > 42.5 µM (inactive); with U-251 it was > 65.6 µM (inactive). The GI50 with EKVX, with TK-10, with Malme-3M, in the assay on KM12, with SK-MEL-2 and in the assay with SK-MEL-5 was > 100 µM (inactive) each time. Besides, the GI50 with OVCAR-5 is > 89.9 µM (inactive); in the assay on NCI-H226, > 100 µM (inactive); in the assay on RPMI-8226, > 49.9 µM (inactive); in the assay with M14 it was > 52.1 µM (inactive); with ACHN it was > 100 µM (inactive).

Consider `O=C(O)C1CCc2nnc(-c3ccccc3)n21` (stereo unspecified), for which the GI50 in the assay with HCT-116, in the assay with OVCAR-4, in the assay on HL-60, in the assay on NCI-H522, in the assay with COLO 205 and in the assay with U-251 was > 100 µM (inactive) each time. Moreover, the GI50 in the assay on EKVX, in the assay with TK-10, in the assay with Malme-3M, with KM12, in the assay with SK-MEL-2 and with SK-MEL-5 was > 100 µM (inactive) in each case. Further, the GI50 with NCI-H226, in the assay with RPMI-8226, in the assay on M14 and with ACHN was > 100 µM (inactive) each time.

`CC1=NN(C(=O)Cc2ccccc2)C(=O)/C1=C/c1c(O)ccc2ccccc12`: the GI50 in the assay with HCT-116 was 49.1 µM (inactive); in the assay with OVCAR-4, 78.9 µM (inactive); in the assay with HL-60, 49.2 µM (inactive); in the assay with NCI-H522, 67.9 µM (inactive); in the assay on COLO 205, > 100 µM (inactive); in the assay on EKVX it was > 100 µM (inactive). Moreover, the GI50 in the assay on TK-10 is 56.9 µM (inactive); in the assay on Malme-3M it was 15.8 µM (inactive); in the assay with KM12, 68.5 µM (inactive); in the assay on SK-MEL-2, 1.7 µM (inactive); in the assay with SK-MEL-5, 96.6 µM (inactive); in the assay on OVCAR-5, 35.8 µM (inactive). The GI50 was 27 µM (inactive) in the assay on NCI-H226, 33.2 µM (inactive) in the assay on RPMI-8226, 10 µM (inactive) with M14 and 28.1 µM (inactive) in the assay with ACHN.
